#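 48-hour exposure; five concentrations; linearly interpolated endpoints. TGI: total growth inhibition.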
# Assays:
# Assay in all cases: NCI tumour cell line growth inhibition, 48 h
# NCI-H23 lung = test system: NCI-H23 lung
# A549 NSCLC = test system: A549 NSCLC
# UACC-257 melanoma = test system: UACC-257 melanoma
# OVCAR-3 ovarian = test system: OVCAR-3 ovarian
# KM12 colon = test system: KM12 colon
# HCT-116 colon = test system: HCT-116 colon
# RPMI-8226 leukemia = test system: RPMI-8226 leukemia
# SF-268 CNS = test system: SF-268 CNS
# NCI-H226 lung = test system: NCI-H226 lung
# IGROV1 ovarian = test system: IGROV1 ovarian
# SK-MEL-2 melanoma = test system: SK-MEL-2 melanoma
# COLO 205 colon = test system: COLO 205 colon
# SK-MEL-28 melanoma = test system: SK-MEL-28 melanoma
# HOP-92 NSCLC = test system: HOP-92 NSCLC
# M14 melanoma = test system: M14 melanoma
# SF-539 CNS = test system: SF-539 CNS
# TK-10 renal = test system: TK-10 renal
# HL-60(TB) leukemia = test system: HL-60(TB) leukemia
# SR leukemia = test system: SR leukemia
# OVCAR-4 ovarian = test system: OVCAR-4 ovarian
# ACHN renal = test system: ACHN renal
# HOP-62 NSCLC = test system: HOP-62 NSCLC
# MALME-3M melanoma = test system: MALME-3M melanoma
# OVCAR-8 ovarian = test system: OVCAR-8 ovarian
# UACC-62 melanoma = test system: UACC-62 melanoma
# T-47D breast = test system: T-47D breast
# NCI-H522 lung = test system: NCI-H522 lung
# LOX IMVI melanoma = test system: LOX IMVI melanoma
# SN12C renal = test system: SN12C renal
# DU-145 prostate = test system: DU-145 prostate
# SK-OV-3 ovarian = test system: SK-OV-3 ovarian
# RXF 393 renal = test system: RXF 393 renal
# BT-549 breast = test system: BT-549 breast
# CAKI-1 renal = test system: CAKI-1 renal
# NCI-H460 lung = test system: NCI-H460 lung
# MOLT-4 leukemia = test system: MOLT-4 leukemia
# K-562 leukemia = test system: K-562 leukemia
# HCT-15 colon = test system: HCT-15 colon
# HS 578T breast = test system: HS 578T breast
# NCI/ADR-RES ovarian = test system: NCI/ADR-RES ovarian
# HT29 colon = test system: HT29 colon
# A498 renal = test system: A498 renal
# U251 CNS = test system: U251 CNS
# 786-0 renal = test system: 786-0 renal
# MCF7 breast = test system: MCF7 breast
# OVCAR-5 ovarian = test system: OVCAR-5 ovarian
# MDA-MB-435 = test system: MDA-MB-435
# SK-MEL-5 melanoma = test system: SK-MEL-5 melanoma
# SW-620 colon = test system: SW-620 colon
# SF-295 CNS = test system: SF-295 CNS
# UO-31 renal = test system: UO-31 renal
# PC-3 prostate = test system: PC-3 prostate
# MDA-MB-231 breast = test system: MDA-MB-231 breast
# SNB-19 CNS = test system: SNB-19 CNS
# HCC-2998 colon = test system: HCC-2998 colon
# EKVX NSCLC = test system: EKVX NSCLC
# CCRF-CEM leukemia = test system: CCRF-CEM leukemia
# SNB-75 CNS = test system: SNB-75 CNS
compound,measurement,setting,value
C=C1CC[C@@H]2C13[C@@H]1[C@H](CC(=O)[C@@]23C)C1(C)C (some centres not stated),TGI,NCI-H23 lung,> 100 µM
same,TGI,A549 NSCLC,> 100 µM
same,TGI,UACC-257 melanoma,> 100 µM
same,TGI,OVCAR-3 ovarian,> 100 µM
same,TGI,KM12 colon,> 100 µM
same,TGI,HCT-116 colon,> 100 µM
same,TGI,RPMI-8226 leukemia,> 100 µM
same,TGI,SF-268 CNS,> 100 µM
same,TGI,NCI-H226 lung,> 100 µM
same,TGI,IGROV1 ovarian,> 100 µM
same,TGI,SK-MEL-2 melanoma,> 100 µM
same,TGI,COLO 205 colon,> 100 µM
same,TGI,SK-MEL-28 melanoma,> 100 µM
same,TGI,HOP-92 NSCLC,> 100 µM
same,TGI,M14 melanoma,> 100 µM
same,TGI,SF-539 CNS,> 100 µM
same,TGI,TK-10 renal,> 100 µM
same,TGI,HL-60(TB) leukemia,> 100 µM
same,TGI,SR leukemia,> 100 µM
same,TGI,OVCAR-4 ovarian,> 100 µM
same,TGI,ACHN renal,> 100 µM
same,TGI,HOP-62 NSCLC,> 100 µM
same,TGI,MALME-3M melanoma,> 100 µM
same,TGI,OVCAR-8 ovarian,> 100 µM
same,TGI,UACC-62 melanoma,> 100 µM
same,TGI,T-47D breast,> 100 µM
same,TGI,NCI-H522 lung,> 100 µM
same,TGI,LOX IMVI melanoma,> 100 µM
same,TGI,SN12C renal,> 100 µM
same,TGI,DU-145 prostate,> 100 µM
same,TGI,SK-OV-3 ovarian,> 100 µM
same,TGI,RXF 393 renal,> 100 µM
same,TGI,BT-549 breast,> 100 µM
same,TGI,CAKI-1 renal,> 100 µM
same,TGI,NCI-H460 lung,> 100 µM
same,TGI,MOLT-4 leukemia,> 100 µM
same,TGI,K-562 leukemia,> 100 µM
same,TGI,HCT-15 colon,> 100 µM
same,TGI,HS 578T breast,> 100 µM
same,TGI,NCI/ADR-RES ovarian,> 100 µM
same,TGI,HT29 colon,> 100 µM
same,TGI,A498 renal,> 100 µM
same,TGI,U251 CNS,> 100 µM
same,TGI,786-0 renal,> 100 µM
same,TGI,MCF7 breast,> 100 µM
same,TGI,OVCAR-5 ovarian,> 100 µM
same,TGI,MDA-MB-435,> 100 µM
same,TGI,SK-MEL-5 melanoma,> 100 µM
same,TGI,SW-620 colon,> 100 µM
same,TGI,SF-295 CNS,> 100 µM
same,TGI,UO-31 renal,> 100 µM
same,TGI,PC-3 prostate,> 100 µM
C/C=C/c1cc2c(cc1O)CC[C@@H]1[C@@H]2CC[C@]2(C)[C@@H](O)CC[C@@H]12,TGI,NCI-H23 lung,4.62 µM
same,TGI,A549 NSCLC,15.9 µM
same,TGI,UACC-257 melanoma,22.4 µM
same,TGI,OVCAR-3 ovarian,2.24 µM
same,TGI,KM12 colon,13.4 µM
same,TGI,HCT-116 colon,5.17 µM
same,TGI,RPMI-8226 leukemia,> 82.6 µM
same,TGI,MDA-MB-231 breast,4.94 µM
same,TGI,SF-268 CNS,21.5 µM
same,TGI,NCI-H226 lung,1.96 µM
same,TGI,SNB-19 CNS,14.9 µM
same,TGI,IGROV1 ovarian,19 µM
same,TGI,SK-MEL-2 melanoma,16.7 µM
same,TGI,HCC-2998 colon,7.13 µM
same,TGI,COLO 205 colon,24.4 µM
same,TGI,SK-MEL-28 melanoma,21.6 µM
same,TGI,M14 melanoma,4.05 µM
same,TGI,SF-539 CNS,0.15 µM
same,TGI,TK-10 renal,27.3 µM
same,TGI,SR leukemia,> 19.6 µM
same,TGI,OVCAR-4 ovarian,27.2 µM
same,TGI,EKVX NSCLC,24.7 µM
same,TGI,ACHN renal,15.5 µM
same,TGI,HOP-62 NSCLC,16.3 µM
same,TGI,MALME-3M melanoma,23.1 µM
same,TGI,OVCAR-8 ovarian,18.1 µM
same,TGI,UACC-62 melanoma,15.4 µM
same,TGI,T-47D breast,41.7 µM
same,TGI,NCI-H522 lung,0.117 µM
same,TGI,LOX IMVI melanoma,24.3 µM
same,TGI,SN12C renal,20.5 µM
same,TGI,DU-145 prostate,3.05 µM
same,TGI,SK-OV-3 ovarian,15.3 µM
same,TGI,RXF 393 renal,1.3 µM
same,TGI,BT-549 breast,22.8 µM
same,TGI,CAKI-1 renal,21.1 µM
same,TGI,NCI-H460 lung,14.3 µM
same,TGI,MOLT-4 leukemia,15.8 µM
same,TGI,CCRF-CEM leukemia,8.44 µM
same,TGI,K-562 leukemia,15.7 µM
same,TGI,HCT-15 colon,18 µM
same,TGI,HS 578T breast,22.3 µM
same,TGI,HT29 colon,20.4 µM
same,TGI,SNB-75 CNS,3.48 µM
same,TGI,A498 renal,6.11 µM
same,TGI,U251 CNS,13 µM
same,TGI,786-0 renal,13.8 µM
same,TGI,MCF7 breast,1.28 µM
same,TGI,OVCAR-5 ovarian,25.4 µM
same,TGI,MDA-MB-435,0.0948 µM
same,TGI,SK-MEL-5 melanoma,14.2 µM
same,TGI,SW-620 colon,19 µM
same,TGI,SF-295 CNS,14.2 µM
same,TGI,UO-31 renal,18.5 µM
same,TGI,PC-3 prostate,23 µM
